From patent US9345722B2, “Pharmaceutical formulations for the treatment of alzheimer's disease” (EMISPHERE TECHNOLOGIES, INC., priority 2006, dated 2016)

How the values were obtained:
[1] = Oral delivery of CPHPC in rats, serum CPHPC concentrations; assay type: in vivo
Method: One group of rats were dosed by oral gavage a solution containing 200 mg/kg SNAC and 10 mg/kg CPHPC (Group 1). The dosing volume was 1 mL/kg. Two groups of rats also received, respectively, control arms of 10 mg/kg CPHPC alone via oral gavage (Group 2) and 0.2 mg/kg of CPHPC via IV (Group 3).
Serum CPHPC concentrations […]) were measured over 40 minutes.

[2] = CPHPC added to solvents to the point of saturation (donor solutions); assay type: physicochemical; settings: ethanolamine as solvent
Method: CPHC was added to the solvents listed in Table 1 below to the point of saturation: […]

[3] = investigational studies, background; cited from earlier work

- Serum CPHPC concentration ([1]; Group 1: 200 mg/kg SNAC and 10 mg/kg CPHPC via PO, 0 min.): 0 ng/mL
- Serum CPHPC concentration ([1]; Group 1: 200 mg/kg SNAC and 10 mg/kg CPHPC via PO, 5 min.): 2960 ± 1210 ng/mL
- Serum CPHPC concentration ([1]; Group 1: 200 mg/kg SNAC and 10 mg/kg CPHPC via PO, 10 min.): 5480 ± 526 ng/mL
- Serum CPHPC concentration ([1]; Group 1: 200 mg/kg SNAC and 10 mg/kg CPHPC via PO, 20 min.): 2800 ± 400 ng/mL
- Serum CPHPC concentration ([1]; Group 1: 200 mg/kg SNAC and 10 mg/kg CPHPC via PO, 40 min.): 1440 ± 219 ng/mL
- Serum CPHPC concentration ([1]; Group 2: 10 mg/kg CPHPC alone via PO, 0 min.): 0 ng/mL
- Serum CPHPC concentration ([1]; Group 2: 10 mg/kg CPHPC alone via PO, 5 min.): 1060 ± 107 ng/mL
- Serum CPHPC concentration ([1]; Group 2: 10 mg/kg CPHPC alone via PO, 10 min.): 1420 ± 171 ng/mL
- Serum CPHPC concentration ([1]; Group 2: 10 mg/kg CPHPC alone via PO, 20 min.): 667 ± 97.1 ng/mL
- Serum CPHPC concentration ([1]; Group 2: 10 mg/kg CPHPC alone via PO, 40 min.): 175 ± 15 ng/mL
- Serum CPHPC concentration ([1]; Group 3: 0.2 mg/kg CPHPC via IV, 0 min.): 0 ng/mL
- Serum CPHPC concentration ([1]; Group 3: 0.2 mg/kg CPHPC via IV, 5 min.): 223 ± 19.5 ng/mL
- Serum CPHPC concentration ([1]; Group 3: 0.2 mg/kg CPHPC via IV, 10 min.): 229 ± 44.8 ng/mL
- Serum CPHPC concentration ([1]; Group 3: 0.2 mg/kg CPHPC via IV, 20 min.): 170 ± 26.2 ng/mL
- Serum CPHPC concentration ([1]; Group 3: 0.2 mg/kg CPHPC via IV, 40 min.): 65.4 ± 25.7 ng/mL
- Solubility of CPHPC in ethanolamine compared with the other solvents [2]: much more soluble in ethanolamine
Structure (SMILES): O=C(O)[C@H]1CCCN1C(=O)CCCCC(=O)N1CCC[C@@H]1C(=O)O [CPHPC, R-1-(6-(R-2-carboxy-pyrrolidin-1-yl)-6-oxo-hexanoyl)pyrrolidine-2-carboxylic acid]
- oral bioavailability [3]: poor oral bioavailability
